Assay results published in patent publication US8927009B2 (AbbVie Inc., priority 2009, dated 2015).
Each block holds one compound with its values, some of them ahead of it.

Columns and labels:
[1] = Drug solubility in ternary excipient systems; type: physicochemical; parameters: key: ✓: vehicle miscible, or drug fully dissolved in vehicle; x: vehicle immiscible or miscible but turbid, or residual solids present (due to undissolved drug or precipitation); details: 10% salt, 20% free base, listed as free base
Description: Solvents evaluated included Labrafil M 1944 CS™, Imwitor 742™, oleic acid, Capmul PG-8™, Capmul PG-12™, Lauroglycol 90™ (propylene glycol monolaurate, available from Gattefossé) and Phosal 53 MCT™. Surfactants evaluated included Tween 80™, Cremophor RH40™, Gelucire 44/14™ (polyoxyethylene glyceryl laurate, available from Gattefossé) and Labrasol™.

[2] = Solubility in lipid solvents and solvent mixtures in ambient conditions; type: physicochemical; details: listed as Parent (Form I)
Experimental: Solubility of ABT-263 parent (free base, crystalline Form I) and ABT-263 bis-HCl salt was tested in a variety of lipid solvents and solvent mixtures in ambient conditions. Trademarked solvents in this study, unless identified hereinabove, are as follows (substantially equivalent products from other manufacturers can be substituted if available): • Miglyol 810™ of Sasol: caprylic/capric triglycerides; • Capmul MCM™ of Abitec: glyceryl caprylate/caprate; • Captex 300™ of Abitec: caprylic/capric triglycerides; • Labrafil M 2125 CS™ of Gattefossé: polyoxyethylene glyceryl linoleate; • Tween 20™ of Uniqema: polysorbate 20; • Labrasol™ of Gattefossé: polyoxyethylene glyceryl caprylate/caprate; • Cremophor RH40™: polyoxyethyene (40) hydrogenated castor oil. “PE-91” is Phosal 53 MCT™+ethanol, 9:1 by volume. “LOT-343” is Labrafil M 1944 CS™+oleic acid+Tween 80™, 30:40:30 by weight.
In some cases, indicated in Table 4 by an asterisk (*), solubility was initially high but precipitation occurred upon standing.

Bcl-w = molecular target: T1, Bcl-w (Homo sapiens, UniProt Q92843); details: cited from earlier work
T1 sequence (Q92843 1-193): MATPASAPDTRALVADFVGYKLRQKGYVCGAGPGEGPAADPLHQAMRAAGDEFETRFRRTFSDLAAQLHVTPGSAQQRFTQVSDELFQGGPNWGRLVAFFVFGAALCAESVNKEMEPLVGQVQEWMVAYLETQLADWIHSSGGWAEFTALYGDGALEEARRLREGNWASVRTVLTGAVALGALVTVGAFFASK

Bcl-XL = Bcl-XL (Homo sapiens, UniProt Q07817); details: cited from earlier work
Bcl-2 = Bcl-2 (Homo sapiens, UniProt P10415); details: cited from earlier work
Bcl-2, sequence (P10415 whole entry): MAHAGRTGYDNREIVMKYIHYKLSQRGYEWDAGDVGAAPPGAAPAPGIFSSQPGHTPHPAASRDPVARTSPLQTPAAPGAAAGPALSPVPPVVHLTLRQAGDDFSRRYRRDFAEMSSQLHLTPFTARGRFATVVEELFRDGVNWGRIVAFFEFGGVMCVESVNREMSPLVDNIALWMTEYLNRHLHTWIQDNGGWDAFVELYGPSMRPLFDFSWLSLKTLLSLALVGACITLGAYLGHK

Bcl-XL, sequence (Q07817 whole entry): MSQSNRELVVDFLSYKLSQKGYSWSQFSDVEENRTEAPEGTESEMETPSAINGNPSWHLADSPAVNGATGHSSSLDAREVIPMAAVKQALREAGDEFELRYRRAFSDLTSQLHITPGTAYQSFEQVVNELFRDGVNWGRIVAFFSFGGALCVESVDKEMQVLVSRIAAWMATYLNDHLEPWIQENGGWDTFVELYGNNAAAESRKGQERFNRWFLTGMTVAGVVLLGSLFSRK

ABT-263 solubility ([1]; Imwitor 742/Labrafil M 1944 CS/Cremophor RH40 (ILC) 40:40:20 % by weight): x | ABT-263 solubility ([1]; Imwitor 742/Labrafil M 1944 CS/Cremophor RH40 (ILC) 50:30:20 % by weight): x | ABT-263 solubility ([1]; Imwitor 742/Labrafil M 1944 CS/Cremophor RH40 (ILC) 50:40:10 % by weight): x | ABT-263 solubility ([1]; Imwitor 742/Labrafil M 1944 CS/Cremophor RH40 (ILC) 60:30:10 % by weight): x | ABT-263 solubility ([1]; Imwitor 742/Labrafil M 1944 CS/Labrasol (ILL) 40:40:20 % by weight): x | ABT-263 solubility ([1]; Imwitor 742/Labrafil M 1944 CS/Labrasol (ILL) 50:30:20 % by weight): x | ABT-263 solubility ([1]; Imwitor 742/Labrafil M 1944 CS/Labrasol (ILL) 50:40:10 % by weight): x | ABT-263 solubility ([1]; Imwitor 742/Labrafil M 1944 CS/Labrasol (ILL) 60:30:10 % by weight): x | ABT-263 solubility ([1]; Labrafil M 1944 CS/Imwitor 742/Tween 80 (LIT) 30:40:30 % by weight): x | ABT-263 solubility ([1]; Labrafil M 1944 CS/Imwitor 742/Tween 80 (LIT) 30:45:25 % by weight): x | ABT-263 solubility ([1]; Labrafil M 1944 CS/Imwitor 742/Tween 80 (LIT) 40:30:30 % by weight): x | ABT-263 solubility ([1]; Labrafil M 1944 CS/Imwitor 742/Tween 80 (LIT) 40:35:25 % by weight): x | ABT-263 solubility ([1]; Lauroglycol 90/Labrafil M 1944 CS/Labrasol (LLL) 50:40:10 % by weight): x | ABT-263 solubility ([1]; Lauroglycol 90/Labrafil M 1944 CS/Labrasol (LLL) 60:30:10 % by weight): x | Solubility ([2]; in Labrafil M 2125 CS, ambient conditions): >290 mg/g | Solubility ([2]; in PE-91 (Phosal 53 MCT + ethanol 9:1 by volume), ambient conditions): >250 mg/g | Solubility ([2]; in PEG-400, ambient conditions): >200 mg/g | Solubility ([2]; in corn oil, ambient conditions): <86 mg/g | Solubility ([2]; in sesame oil, ambient conditions): <75 mg/g
Structure (SMILES): CC1(C)CCC(c2ccc(Cl)cc2)=C(CN2CCN(c3ccc(C(=O)NS(=O)(=O)c4ccc(N[C@H](CCN5CCOCC5)CSc5ccccc5)c(S(=O)(=O)C(F)(F)F)c4)cc3)CC2)C1 [ABT-263]

Structure (SMILES): CN(C)CC[C@H](CSc1ccccc1)Nc1ccc(S(=O)(=O)NC(=O)c2ccc(N3CCN(Cc4ccccc4-c4ccc(Cl)cc4)CC3)cc2)cc1[N+](=O)[O-] [ABT-737]
binding affinity (Bcl-w): < 1 nM | binding affinity (Bcl-XL): < 1 nM | binding affinity (Bcl-2): < 1 nM
